Assay results reported in US20110306563A1, “MACROLACTONE DERIVATIVES, METHOD FOR THE PRODUCTION THEREOF AND USE THEREOF FOR THE TREATMENT OF CANCER” (SANOFI, priority 2008, published 2011).
Read-outs that look alike come from different tables or passages of the source.

Columns and labels:
Type in all cases: cell-based
HCT116 = assay: 14C-Thymidine incorporation assay, HCT116; conditions: Homo sapiens, HCT-116
Experimental: (§1) Experimental conditions for 14C-Thymidine incorporation assays: • 1) Cells were seeded in 96 well Cytostar microplates in 180 μl of culture medium (DMEM supplemented with 10% Fetal Calf Serum). • Seeding density are 2500 cells/well for HCT116, 5000 cells/well for HT29 and PC3 and 10000 cells/well for MDA-MB231, MDA-A1, H460 and B16F10. • 2) The microplates were incubated 4 h at 37° C. with 5% CO2 • 3) 10 μl of test compound were added • 4) The microplates were incubated 72 h at 37° C. with 5% CO2 • 5) 10 μl of 14C-Thymidine at 10 μCi/ml was added • 6) The microplates were incubated 24 h at 37° C. with 5% CO2 • 7) The radioactivity incorporated in the cells was measured with a Microbeta Trilux radioactivity scintillation counter (Wallac).

MDA-MB231 = assay: 14C-Thymidine incorporation assay, MDA-MB231; conditions: Homo sapiens, MDA-MB-231; MDA-MB231, Breast; 72 h + 24 h 14C-Thymidine
Experimental: as §1

MDA-A1 = assay: 14C-Thymidine incorporation assay, MDA-A1; conditions: MDA-A1, Breast; 72 h + 24 h 14C-Thymidine
Experimental: as §1

H460 = assay: 14C-Thymidine incorporation assay, H460; conditions: Homo sapiens, NCI-H460; H460, Lung; 72 h + 24 h 14C-Thymidine
Experimental: as §1

HL60 = assay: ATP viability assay (CellTiterGlo), HL60; conditions: Homo sapiens, HL-60; HL60, Leukemia; 96 h incubation
Experimental: (§2) Experimental conditions for ATP viability assays: • 1) Cells were seeded in 96 well microplates in 135 μl of culture medium. • Culture medium used were RPMI supplemented with 10% Fetal Calf Serum for HL60 and CEM cell lines and DMEM with 10% FCS for Normal Human Dermal Fibroblasts (NHDF). Seeding density was 25000 cells/well for HL60 and CEM and 7500 cells/well for NHDF. • 2) The microplates were incubated 4 h at 37° C. with 5% CO2. • 3) 15 μl of test compound were added • 4) The microplates were incubated 96 h. • 5) 100 μl of a mix of lysing reagent and luciferase/luciferin was added (CellTiterGlo, Promega). The luminescence emitted was measured with a Microbeta Trilux counter (Wallac).

HT29 = assay: 14C-Thymidine incorporation assay, HT29; conditions: Homo sapiens, HT-29; HT29, Colon; 72 h + 24 h 14C-Thymidine
Experimental: as §1

CEM = assay: ATP viability assay (CellTiterGlo), CEM; conditions: Homo sapiens, CCRF-CEM, Leukemia, 96 h incubation
Experimental: as §2

B16F10 = assay: 14C-Thymidine incorporation assay, B16F10; conditions: Mus musculus, B16-F10; B16F10, Melanoma; 72 h + 24 h 14C-Thymidine
Experimental: as §1

[1] = test system: Normal Human Dermal Fibroblasts (NHDF); assay: ATP viability assay (CellTiterGlo), NHDF; conditions: 96 h incubation
Experimental: as §2

PC3 = assay: 14C-Thymidine incorporation assay, PC3; conditions: Homo sapiens, PC-3; PC3, Prostate; 72 h + 24 h 14C-Thymidine
Experimental: as §1

[2] = HCT116 (colon), average, read-out: Average IC50 (nM) against HCT116 (colon)
[3] = HCT116, Colon, 72 h + 24 h 14C-Thymidine, read-out: IC50

COC1CC2OC2(C)C(=O)N(C)C(C(C)C)C(=O)NC(Cc2cc(Cl)c(O)c(Cl)c2)C(=O)NC(C(C)(C)O)C(=O)OC(c2ccccc2)C(C)/C=C/C=C/1C (stereo not drawn) [V]
IC50 (HCT116; [2]): 0.673 nM

CCC(C)C1C(=O)NC(Cc2ccc(O)c(Br)c2)C(=O)NC(C(C)(C)O)C(=O)OC(c2ccccc2)C(C)/C=C/C=C(\C)C(OC)C/C=C(/C)C(=O)N1C (stereo not drawn) [VIII]
IC50 (HCT116; [2]): 2.1 nM

CCC(C)C1C(=O)NC(Cc2cc(Cl)c(OC)c(Cl)c2)C(=O)NC(C(C)(C)O)C(=O)OC(c2ccccc2)C(C)/C=C/C=C(\C)C(OC)CC2OC2(C)C(=O)N1C (stereo not drawn) [IX]
IC50 (MDA-MB231): 5.1 to 8.4 nM | IC50 (MDA-A1): 9.6 to 14.1 nM | IC50 (HCT116; [3]): 2.1 to 2.2 nM

CCC(C)C1C(=O)NC(Cc2ccc(O)c(Br)c2)C(=O)NC(C(C)(C)O)C(=O)OC(c2ccccc2)C(C)/C=C/C=C(\C)C(OC)CC2OC2(C)C(=O)N1C (stereo not drawn) [VII]
IC50 (HCT116; [2]): 0.268 nM

CCC(C)C1C(=O)NC(Cc2cc(Cl)c(O)c(Br)c2)C(=O)NC(C(C)(C)O)C(=O)OC(c2ccccc2)C(C)/C=C/C=C(\C)C(OC)CC2OC2(C)C(=O)N1C (stereo not drawn) [VI]
IC50 (HCT116; [2]): 0.393 nM

CCC(C)C1C(=O)NC(Cc2cc(Cl)c(O)c(Cl)c2)C(=O)NC(C(C)(C)O)C(=O)OC(c2ccccc2)C(C)/C=C/C=C(\C)C(OC)CC2OC2(C)C(=O)N1C (stereo not drawn) [II]
IC50 (H460): 9.1 to 10.4 nM | IC50 (HL60): 9.5 to 15 nM | IC50 (HT29): 3 to 12.5 nM | IC50 (MDA-MB231): 4.8 to 16.8 nM | IC50 (MDA-A1): 1.4 to 20.8 nM | IC50 (CEM): 7.1 to 10.5 nM | IC50 (B16F10): 4.5 to 25.2 nM | IC50 (HCT116; [3]): 0.6 to 5.6 nM | IC50 [1]: 6.2 to 9.5 nM | IC50 (PC3): 4.4 to 16 nM

CCC(C)C1C(=O)NC(Cc2ccc(O)c(Cl)c2)C(=O)NC(C(C)(C)O)C(=O)OC(c2ccccc2)C(C)/C=C/C=C(\C)C(OC)CC2OC2(C)C(=O)N1C (stereo not drawn) [III]
IC50 (HCT116; [2]): 0.326 nM
